From publication PMC11156913, “New sulfonamide-based glycosides incorporated 1,2,3-triazole as cytotoxic agents through VEGFR-2 and carbonic anhydrase inhibitory activity” (Scientific Reports, 2024)
Read-outs that look alike come from different tables or passages of the source.

Experiments:
[1] = system: liver HepG-2 cancer cell line; experiment: In vitro cytotoxic activity (MTT assay), HepG-2; conditions: for inhibition at 100 µM / IC50: Homo sapiens; for inhibition at 100 µM: HepG2, 48 h, read-out: % inhibition ± SD HepG-2; for IC50: HepG2, read-out: IC50 (mean ± SD) HepG-2
From the text: (§1) The supplemental file contained extra details.

[2] = system: breast MCF-7 cancer cell line; experiment: In vitro cytotoxic activity (MTT assay), MCF-7; format: cell-based, human; conditions: for inhibition at 100 µM / IC50: Homo sapiens; for inhibition at 100 µM: read-out: % inhibition ± SD MCF-7; for IC50: MCF-7 cells, MTT, read-out: IC50 (mean ± SD) MCF-7
From the text: as §1

[3] = system: colorectal HCT-116 cancer cell line; experiment: In vitro cytotoxic activity (MTT assay), HCT-116; format: cell-based, human; conditions: for inhibition at 100 µM: read-out: % inhibition ± SD HCT-116
From the text: as §1

[4] = system: lung A-549 cancer cell line; experiment: In vitro cytotoxic activity (MTT assay), A-549; conditions: Homo sapiens; for inhibition at 100 µM: A549, 48 h, read-out: % inhibition ± SD A-549
Procedure: Exponentially, cells were placed in 10^4 cells/ well for 24 h, and then add fresh medium which containing different concentration of the tested sample. Serial two-fold dilution of the tested sample were added using a multichannel pipette. […] Rinse the wells using water until no stain. After that, add 30% glacial acetic acid to all wells with shaking plates on Microplate reader (TECAN, Inc.) to measure the absorbance, using a test wavelength of 490 nm. Besides, compare the treated samples with the control cell.

[5] = Homo sapiens, HCT-116, 100 µM, 48 h

Compound	inhibition at 100 µM ([2]; MCF7, 100 µM, 48 h) [%]	inhibition at 100 µM [3, 5] [%]	melting point [°C]	inhibition at 100 µM [4] [%]	percentage cytotoxicity on HepG-2 ([1]; 12.5 µM) [%]	percentage cytotoxicity on HepG-2 ([1]; 25 µM) [%]	percentage cytotoxicity on HepG-2 ([1]; 50 µM) [%]	percentage cytotoxicity on HepG-2 ([1]; 100 µM) [%]	IC50 [1] [µM]	IC50 ([2]; MCF7) [µM]	further results
CCCCNS(=O)(=O)c1ccc(-n2cc(CO[C@@H]3O[C@H](CO)[C@H](O)[C@H](O)[C@H]3O)nn2)cc1 [Compound 10, N-butyl-4-(4-([β-D-Galactopyranosyl]oxymethyl)-1H-1,2,3-triazol-1-yl)benzenesulfonamide]	25.4 ± 0.91	8.91 ± 2.7	100 to 102	32 ± 0.84							inhibition at 100 µM [1]: 35.9 ± 0.42%
O=S(=O)(NC1CCCCC1)c1ccc(-n2cc(CO[C@@H]3O[C@H](CO)[C@H](O)[C@H](O)[C@H]3O)nn2)cc1 [Compound 11, N-cyclohexyl-4-(4-([β-D-galactopyranosyl]oxymethyl)-1H-1,2,3-triazol-1-yl)benzenesulfonamide]	20.8 ± 0.79	39 ± 0.96	118 to 120	30.1 ± 0.62	44.80±0.50	57.70±0.87	62.70±0.36	73.85±1.06	16.9 ± 0.09		
CCCCNS(=O)(=O)c1ccc(-n2cc(CO[C@@H]3OC[C@@H](O)[C@H](O)[C@H]3O)nn2)cc1 [Compound 12, N-butyl-4-(4-([β-D-Xylopyranosyl]oxymethyl)-1H-1,2,3-triazol-1-yl)benzenesulfonamide]			150 to 152	17.8 ± 0.95	33.95±0.33	44.70±1.13	55.95±0.44	62.86±1.19	36.44 ± 0.12		inhibition at 100 µM ([2]; MCF7, 48 h): 41.4 ± 0.91%; inhibition at 100 µM ([3]; Homo sapiens, HCT-116, 48 h): 0%
CCCCNS(=O)(=O)c1ccc(-n2cc(CO[C@@H]3O[C@H](COC(C)=O)[C@H](OC(C)=O)[C@H](OC(C)=O)[C@H]3OC(C)=O)nn2)cc1 [Compound 6, N-butyl-4-(4-([2,3,4,6-tetra-O-acetyl-β-D-galactopyranosyl]oxymethyl)-1H-1,2,3-triazol-1-yl)benzenesulfonamide]	37.5 ± 0.52	0		32.53 ± 0.15							inhibition at 100 µM [1]: 8.93 ± 0.74%
CCN(CC)CCNC(=O)c1c(C)[nH]c(/C=C2\C(=O)Nc3ccc(F)cc32)c1C [Sunitinib, reference compound]											IC50 ([4]; A549, read-out: IC50 (mean ± SD) A-549): 10.1 ± 0.5 µM
CCCCNS(=O)(=O)c1ccc(N=[N+]=[N-])cc1 [Compound 3, 4-Azido-N-butylbenzenesulfonamide]	51.97 ± 0.29	16.7 ± 0.6	47 to 49	20.47 ± 0.15	3.76±5.32	19.08±1.88	49.40±1.91	71.40±0.91	57.6 ± 12.2		
COc1cccc2c1C(=O)c1c(O)c3c(c(O)c1C2=O)C[C@@](O)(C(=O)CO)C[C@@H]3O[C@H]1C[C@H](N)[C@H](O)[C@H](C)O1 [Doxorubicin, reference compound]	100 ± 0.08	100 ± 0.25		100 ± 0.2					13.8 ± 0.45	17.4 ± 0.46	
O=S(=O)(NC1CCCCC1)c1ccc(-n2cc(CO[C@@H]3OC[C@@H](O)[C@H](O)[C@H]3O)nn2)cc1 [Compound 13, N-cyclohexyl-4-(4-([β-D-Xylopyranosyl]oxymethyl)-1H-1,2,3-triazol-1-yl)benzenesulfonamide]	71.43 ± 0.03	70.1 ± 1.05	160 to 162	54.6 ± 0.97	43.30±0.66	38.80±0.40	56.20±1.29	75.10±0.12	30.01 ± 0.06	30.83 ± 0.2	percentage cytotoxicity on MCF-7 ([2]; 12.5 µM): 34.87±5.91%; percentage cytotoxicity on MCF-7 ([2]; 25 µM): 48.07±4.31%; percentage cytotoxicity on MCF-7 ([2]; 50 µM): 54.73±1.88%; percentage cytotoxicity on MCF-7 ([2]; 100 µM): 71.43±2.03%; percentage cytotoxicity on HCT-116 ([3]; 12.5 µM): 11.00±0.65%; percentage cytotoxicity on HCT-116 ([3]; 25 µM): 28.51±0.69%; percentage cytotoxicity on HCT-116 ([3]; 50 µM): 47.00±0.79%; percentage cytotoxicity on HCT-116 ([3]; 100 µM): 70.10±1.05%; IC50 ([3]; Homo sapiens, HCT-116 cells, MTT, read-out: IC50 (mean ± SD) HCT-116): 53.1 ± 0.69 µM
CCCCNS(=O)(=O)c1ccc(-n2cc(CO[C@@H]3OC[C@@H](OC(C)=O)[C@H](OC(C)=O)[C@H]3OC(C)=O)nn2)cc1 [Compound 8, N-butyl-4-(4-([2,3,4-tri-O-acetyl-β-D-xylopyranosyl]oxymethyl)-1H-1,2,3-triazol-1-yl)benzenesulfonamide]	66 ± 0.69	41.05 ± 0.18		58.1 ± 0.56	23.15±0.43	32.80±2.12	50.73±1.45	69.17±0.21	47 ± 0.51	46.49 ± 0.42	percentage cytotoxicity on MCF-7 ([2]; 12.5 µM): 29.56±1.66%; percentage cytotoxicity on MCF-7 ([2]; 25 µM): 36.13±2.06%; percentage cytotoxicity on MCF-7 ([2]; 50 µM): 49.80±0.41%; percentage cytotoxicity on MCF-7 ([2]; 100 µM): 66.04±0.69%
